Measured values: patent US20050203189A1, “Remedies for chronic kidney diseases” (priority 2002, published 2005)

What was measured:
[1] = biological target: T1, Canine cardiac sarcolemmal vesicle Na+/Ca2+ exchanger (Canis lupus familiaris, UniProt P23685); experiment: Canine cardiac sarcolemmal vesicle Na+/Ca2+ exchanger, Na-dependent 45Ca uptake; assay type: biochemical; settings: canine cardiac sarcolemmal vesicles; read-out: Inhibitory activity against Na+/Ca2+ exchange (Na-dependent 45Ca uptake), IC50 value, Cardiac sarcolemma
T1 construct: Canine cardiac sarcolemmal vesicles (0.5 mg/ml) were prepared by centrifugal fractionation; from tissue; host or cells: canine cardiac sarcolemmal vesicles
Protocol: Method of Measuring for Canine Cardiac Sarcolemmal Vesicle Na^+/Ca^2+ Exchanger
Canine cardiac sarcolemmal vesicles (0.5 mg/ml) were prepared by centrifugal fractionation as described in Methods enzymology, vol. 157, p. 85 (1988) and suspended in Solution A (20 mM MOPS-Tris (pH 7.4), 160 mM NaCl or KCl), followed by incubation at room temperature for about one hour to cause Na or K loading into the vesicles. This suspension was diluted 50-fold with 20 μM ^45CaCl2-containing buffer to induce ^45Ca uptake, followed by dilution with the buffer (0° C.) to stop the reaction. The membrane vesicles were immediately collected on a nitrocellulose filter. Subsequently, ^45Ca trapped inside the membrane vesicles was determined by liquid scintillation counting. The Na^+/Ca^2+ exchange activity was evaluated by subtracting the value obtained for K loading from the value obtained for Na loading. The above assay for Na^+/Ca^2+ exchange activity in canine cardiac sarcolemmal vesicles was performed according to the procedures described in J. Biol. Chem., vol. 257, p. 5111 (1982).

[2] = system: Brain microsomal Na+/Ca2+ exchanger; experiment: Brain microsomal Na+/Ca2+ exchanger, Na-dependent 45Ca uptake; assay type: biochemical; settings: rat brain microsomes; read-out: Inhibitory activity against Na+/Ca2+ exchange (Na-dependent 45Ca uptake), IC50 value, Brain
Protocol: Method of Measuring for Brain Microsomal Na^+/Ca^2+ Exchanger
Brain microsomes (1.5 mg/mil) obtained from 8-week-old rats were pre-treated with 160 mM NaCl-containing buffer to cause Na loading into membrane vesicles. This suspension was diluted 50-fold with 20 μM ^45CaCl2-containing buffer to induce ^45Ca uptake, followed by dilution with the buffer (0° C.) to stop the reaction. The membrane vesicles were immediately collected on a nitrocellulose filter. Subsequently, ^45Ca trapped inside the membrane vesicles was determined by liquid scintillation counting. The above assay for Na^+/Ca^2+ exchange activity in brain microsomes was performed according to the procedures described in J. Biol. Chem., vol. 257, p. 5111 (1982).

[3] = biological target: T2, Rat renal cortex-derived BLMVs Na+/Ca2+ exchanger (Rattus norvegicus, UniProt Q01728); experiment: Rat renal cortex-derived BLMV Na+/Ca2+ exchange activity, Na-dependent 45Ca uptake; assay type: biochemical; settings: for IC50: rat renal cortex BLMVs, read-out: Inhibitory activity against Na+/Ca2+ exchange (Na-dependent 45Ca uptake), IC50 value, Renal cortex
T2 construct: BLMVs were prepared from rat renal cortex; from tissue; host or cells: rat renal cortex basolateral membrane vesicles
Protocol: Preparation of Rat Renal Cortex-Derived BLMVs (Basolateral Membrane Vesicles) and Method of Measuring for their Na^+/Ca^2+ Exchange Activity
BLMVs were prepared from rat renal cortex and assayed for Na^+/Ca^2+ exchange activity according to the procedures described in Am. J. Physiol., vol. 266, p. F785 (1994).
After being excised from rats, the kidneys were placed in ice-cold sucrose buffer ([…], 0.1 mM PMSF, 10 mM Tris-HCl (pH 7.6)) and decapsulated. The isolated cortex was then finely minced in the sucrose buffer and homogenized sequentially with a Dounce-type homogenizer and a Polytron-type homogenizer, followed by centrifugation at 2500 g for 15 minutes to collect the supernatant. Centrifugation was repeated at 24000 g for 20 minutes to collect the white fluffy portion of the pellet. After further addition of the sucrose buffer, the collected fraction was homogenized with a Dounce-type homogenizer, supplemented with Percoll and then centrifuged at 30000 g for 35 minutes to collect the middle layer. After addition of buffer (100 mM KCl, 100 mM mannitol, 5 mM HEPES-Tris (pH 7.4)), centrifugation was carried out at 34000 g for 30 minutes to collect the loose white pellet (BLMVs). The pellet was further suspended in the KCl-mannitol buffer and then centrifuged at 34000 g for 30 minutes to collect the precipitate, which was used for activity assay.
(Method of Measuring for Na^+/Ca^2+ Exchanger (Na-Dependent ^45Ca Uptake))
The BLMVs thus prepared were equilibrated at 37° C. for 10 minutes in pre-equilibration buffer (100 mM NaCl, 40 mM KCl, 1 mM MgSO4, 10 mM glucose, 5 mM HEPES-Tris (pH 7.4)) and then centrifuged at 20000 g for 5 minutes to collect the precipitate, which was then resuspended in the pre-equilibration buffer. Centrifugation was repeated to collect the precipitate, followed by resuspension in the pre-equilibration buffer. […] Subsequently, the filter was washed twice with 2 ml stop solution and then the amount of ^45Ca trapped inside the BLMVs was determined by using liquid scintillation method.

ZSF-1 rats = experiment: Kidney protective activity in spontaneous diabetic rats (ZSF-1); assay type: in vivo, rat; settings: for Amount of urinary albumin excretion / Amount of urinary protein excretion: ZSF-1 rats
Protocol: ZSF-1 rats and ZSF-1/lean rats which were control animals (8 weeks old) obtained from The Jackson Laboratory were used for this test. The rats were divided into 5 groups (8 individuals for each group) for the test. • Group I: ZSF-1/lean+solvent orally administered (twice a day) • Group II: ZSF-1+solvent orally administered (twice a day) • Group III: ZSF-1+SEA0400 1 mg/kg orally administered (twice a day) • Group IV: ZSF-1+SEA0400 3 mg/kg orally administered (twice a day) • Group V: ZSF-1+SEA0400 10 mg/kg orally administered (twice a day)
The solvent and SEA0400 were orally administered twice a day (first time at 8:30 to 10:30 and second time at 16:30 to 18:30) for consecutive 8 weeks. Eight weeks after the administration started, each of the rats was placed in a metabolic cage where urine was taken so that the amounts of protein and albumin in urine were measured to observe the effect oil the kidney function. Determination of the amounts of protein and albumin was performed following the description of the above-mentioned references using an autoanalyzer (HITACHI 7060 Automatic Analyzer).

[4] = system: Dahl-salt sensitive (Dahl-S) rats; experiment: Kidney protective activity in Dahl-salt sensitive rat; assay type: in vivo; settings: 10 mg/kg orally twice a day, 6 weeks
Protocol: This test was conducted following the method described in J. Cardiovascular Pharmacology, Vol. 23, p. 970 (1994). Specifically, procedures are as follows.
Dahl-salt sensitive (Dahl-S) rats and Dahl-salt resistant (Dahl-R) rats as control animals (male, 7 weeks old) were used for the experiment. The rats were divided into 3 groups (6 individuals for each group) for the test. • Group I: Dahl-R+4% NaCl chow+solvent orally administered (twice a day) • Group II: Dahl-S+4% NaCl chow+solvent orally administered (twice a day) • Group III: Dahl-S+4% NaCl chow+SEA0400 10 mg/kg orally administered (twice a day)
Each animal was fed with a 4% NaCl high-salt-containing chow (whereas normal chow contains 0.6% NaCl) and water adlibitum. The solvent and SEA0400 were orally, administered twice a day (first time at 8:30 to 9:30 and second time at 16:30 to 17:30) for consecutive 6 weeks. In 6 weeks after the administration started, each of the rats was placed in a metabolic cage where urine was taken so that the amounts of protein and albumin in urine were measured to observe the effect on the kidney function. Determination of the amounts of protein and albumin in urine was performed following the method described in Bunseki Kagaku, Vol. 32, pp. E379-E386 (1983) and Hypertension, Vol. 40, No. 6, pp. 834-839 (2002) using an autoanalyzer (HITACHI Automatic Analyzer 7060).

| IC50 [1] [µM] | IC50 [2] [µM] | IC50 [3] [µM] | Inhibitory activity relative to SEA0400, renal cortex-derived Na+/Ca2+ exchange activity ([3]; relative to SEA0400) | Structure (SMILES) | Amount of urinary albumin excretion (ZSF-1 rats; 1 mg/kg orally twice a day, 8 weeks (Group III), solvent group 28±5, lean 1±0.1) [mg/day] | Amount of urinary protein excretion (ZSF-1 rats; 1 mg/kg orally twice a day, 8 weeks (Group III), solvent group 58±9, lean 14±1) [mg/day] | Amount of urinary albumin excretion (ZSF-1 rats; 3 mg/kg orally twice a day, 8 weeks (Group IV), solvent group 28±5) [mg/day] | Amount of urinary protein excretion (ZSF-1 rats; 3 mg/kg orally twice a day, 8 weeks (Group IV), solvent group 58±9) [mg/day] | Amount of urinary albumin excretion (ZSF-1 rats; 10 mg/kg orally twice a day, 8 weeks (Group V), solvent group 28±5, significantly lower) [mg/day] | Amount of urinary protein excretion (ZSF-1 rats; 10 mg/kg orally twice a day, 8 weeks (Group V), solvent group 58±9, significantly lower) [mg/day] | Kidney protective activity (effect on increase in urinary protein and albumin excretion) (ZSF-1 rats; spontaneous diabetic rats (ZSF-1), orally twice a day, 8 weeks) | Kidney protective activity (effect on increase in urinary protein and albumin excretion) [4] | Amount of urinary albumin excretion ([4]; 4% NaCl chow, solvent group 109±14, Dahl-R 2±1) [mg/day] | Amount of urinary protein excretion ([4]; 4% NaCl chow, solvent group 144±11, Dahl-R 23±2) [mg/day] |
| --- | --- | --- | --- | --- | --- | --- | --- | --- | --- | --- | --- | --- | --- | --- |
| 7 | 11 | 6.8 | – | N=C(N)SCCc1ccc(OCc2ccc([N+](=O)[O-])cc2)cc1 [K-BR7943, 2-[2-[4-[nitrobenzyloxy]phenyl]ethyl]isothio-ureamethanesulfonate, reference compound] | – | – | – | – | – | – | – | – | – | – |
| – | – | – | about 0.07 fold | O=[N+]([O-])c1cccnc1Oc1ccc(OCc2ccc(F)cc2)cc1 [SEA0064] | – | – | – | – | – | – | – | – | – | – |
| 0.09 | 0.2 | 0.02 | – | CCOc1ccc(Oc2ccc(OCc3cc(F)ccc3F)cc2)c(N)c1 [SEA0400, 2-[4-[(2,5-difluorophenyl)methoxy]phenoxy]-5-ethoxyaniline] | 20 ± 5 | 40 ± 8 | 17 ± 5 | 37 ± 7 | 9 ± 2 | 29 ± 5 | significantly inhibited the increase in urinary protein and albumin excretion | significantly inhibited the increase in urinary protein and albumin excretion | 58 ± 8 | 91 ± 12 |
